System: Dottersackgefäßsystem von Hühnerembryonen
Test: animal or person
Settings: for Hemmung: time point not stated
Text: Cyproheptadin (Peritol®) wird aufgrund seiner zentralen Wirkung als Appetitsstimulanz in der Klinik verwendet. Als Nebenwirkungen waren bisher im wesentlichen sedierende Effekte bekannt. […] Zur Wirkungsanalyse wurde die Gefäßentwicklung der Dottersackmembran von befruchteten Hühnereiern benutzt. Das Modell hat den Vorteil, daß die Entwicklung dieses primären Gefäßsystems der Hühnerembryonen Kapillaren erzeugt, die eine große Ähnlichkeit mit Tumorgefäßen haben. Diese Kapillaren sind stärker fenestriert und sind anatomisch den Tumorvaskularitäten ähnlich.
Bei 30 ex ovo bebrüteten Hühnereiern werden jeweils auf zwei Bereiche des Dottersackgefäßsystems 1,5 µl eines 3%igen Traganth-Gels, in dem Cyproheptadin in der zu untersuchenden Konzentration eingebracht wurde, appliziert. Bei weiterer Bebrütung in einem Sterilinkubator bei 37°C und 85% Luftfeuchtigkeit entwickeln sich die pre- bzw. postkapillären Gefäßstrukturen der Dottersackvaskularitäten, die 9 h und 24 h post applicationem semiquantitativ bewertet werden.
Ebenfalls nach 9 h und 24 h werden die Applikationsstellen bewertet.

## CN1CCC(=C2c3ccccc3C=Cc3ccccc32)CC1 [Cyproheptadin]
24 h values compared with 9 h values
  Wirkung 24 h nach Applikation: in leicht abgeschwächter Form noch vorhanden
Gallus gallus, read-out: maximale Wirkungsstärke
  Emax: 76%
Effective concentration range in words
  Hemmung der Dottersackangiogenese, wirksame Konzentrationen: in nanomolaren Konzentrationen
Single substance at its IC 25 concentration
  Hemmung: 20,3%
Single substance at its IC 50 concentration
  Hemmung: 37,9%
Single substance at its IC 75 concentration
  Hemmung: 65,8%
Single substance at its IC 100 concentration
  Hemmung: 76,6%
Very high concentrations
  Angiogenese bei sehr hohen Konzentrationen: totale Verhinderung einer Angiogenese

Reference: EP1478365B1 (Nowak, Götz, priority 2002, dated 2003)
